Tests used:
Human COX I = molecular target: T1, Human COX I (Homo sapiens, UniProt P23219); experiment: COX I activity in vitro (PGE2 ELISA, recombinant enzyme); assay type: biochemical; conditions: arachidonic acid 10 μM, pre-incubation 10-20 minutes; read-out: Human COX I ID50
T1 construct: A 2.0 kb fragment containing the coding region of either human or murine COX-I or human or murine COX-II; made in house; host or cells: SF9 insect cells (recombinant baculovirus, transfer vector pVL1393)
Protocol: (§1) A 2.0 kb fragment containing the coding region of either human or murine COX-I or human or murine COX-II was cloned into a BamH1 site of the baculovirus transfer vector pVL1393 (Invitrogen) to generate the baculovirus transfer vectors for COX-I and COX-II in a manner similar to the method of D. R. O'Reilly et al (Baculovirus Expression Vectors: A Laboratory Manual (1992)). Recombinant baculoviruses were isolated by transfecting 4 μg of baculovirus transfer vector DNA into SF9 insect cells ([…]) along with 200 ng of linearized baculovirus plasmid DNA by the calcium phosphate method. See M. D. Summers and G. E. Smith, A Manual of Methods for Baculovirus Vectors and Insect Cell Culture Procedures, Texas Agric. Exp. Station Bull. 1555 (1987). Recombinant viruses were purified by three rounds of plaque purification and high titer (10E7-10E8 pfu/ml), stocks of virus were prepared. For large scale production, SF9 insect cells were infected in 10 liter fermentors (0.5×10^6/ml) with the recombinant baculovirus stock such that the multiplicity of infection was 0.1. After 72 hours the cells were centrifuged and the cell pellet homogenized in Tris/Sucrose (50 mM: 25%, pH 8.0) containing 1% 3-[(3-cholamidopropyl)dimethylammonio]-1-propanesulfonate (CHAPS). The homogenate was centrifuged at 10,000×G for 30 minutes, and the resultant supernatant was stored at −80° C. before being assayed for COX activity.
(§2) COX activity was assayed as PGE2 formed/μg protein/time using an ELISA to detect the prostaglandin released. CHAPS-solubilized insect cell membranes containing the appropriate COX enzyme were incubated in a potassium phosphate buffer (50 mM, pH 8.0) containing epinephrine, phenol, and heme with the addition of arachidonic acid (10 μM). Compounds were pre-incubated with the enzyme for 10-20 minutes prior to the addition of arachidonic acid. Any reaction between the arachidonic acid and the enzyme was stopped after ten minutes at 37° C./room temperature by transferring 40 μl of reaction mix into 160 μl ELISA buffer and 25 μM indomethacin. The PGE2 formed was measured by standard ELISA technology (Cayman Chemical).

Human COX II = molecular target: T2, Human COX II (Homo sapiens, UniProt P35354); experiment: COX II activity in vitro (PGE2 ELISA, recombinant enzyme); assay type: biochemical; conditions: arachidonic acid 10 μM, pre-incubation 10-20 minutes; read-out: Human COX II ID50
T2 construct: A 2.0 kb fragment containing the coding region of either human or murine COX-I or human or murine COX-II; made in house; host or cells: SF9 insect cells (recombinant baculovirus, transfer vector pVL1393)
T2 sequence (P35354 18-604): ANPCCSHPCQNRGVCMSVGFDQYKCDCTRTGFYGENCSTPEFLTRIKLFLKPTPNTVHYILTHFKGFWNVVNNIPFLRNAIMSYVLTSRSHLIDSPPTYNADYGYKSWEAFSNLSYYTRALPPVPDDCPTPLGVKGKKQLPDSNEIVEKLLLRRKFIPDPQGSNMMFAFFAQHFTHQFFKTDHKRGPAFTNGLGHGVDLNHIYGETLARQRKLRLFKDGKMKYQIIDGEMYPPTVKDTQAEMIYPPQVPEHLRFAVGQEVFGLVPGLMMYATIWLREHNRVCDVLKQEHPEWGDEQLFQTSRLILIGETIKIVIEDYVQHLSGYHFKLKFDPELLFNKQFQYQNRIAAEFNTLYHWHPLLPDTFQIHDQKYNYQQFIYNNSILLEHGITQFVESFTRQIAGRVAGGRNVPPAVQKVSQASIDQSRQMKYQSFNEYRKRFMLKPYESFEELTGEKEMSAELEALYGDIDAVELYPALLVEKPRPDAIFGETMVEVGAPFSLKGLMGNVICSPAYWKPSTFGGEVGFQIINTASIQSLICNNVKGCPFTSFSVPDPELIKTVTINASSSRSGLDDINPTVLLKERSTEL
Protocol: The COX II inhibition activity of the compounds of this invention illustrated in the Examples was determined by the following methods.
as §1, §2

T1 sequence (P23219 24-599): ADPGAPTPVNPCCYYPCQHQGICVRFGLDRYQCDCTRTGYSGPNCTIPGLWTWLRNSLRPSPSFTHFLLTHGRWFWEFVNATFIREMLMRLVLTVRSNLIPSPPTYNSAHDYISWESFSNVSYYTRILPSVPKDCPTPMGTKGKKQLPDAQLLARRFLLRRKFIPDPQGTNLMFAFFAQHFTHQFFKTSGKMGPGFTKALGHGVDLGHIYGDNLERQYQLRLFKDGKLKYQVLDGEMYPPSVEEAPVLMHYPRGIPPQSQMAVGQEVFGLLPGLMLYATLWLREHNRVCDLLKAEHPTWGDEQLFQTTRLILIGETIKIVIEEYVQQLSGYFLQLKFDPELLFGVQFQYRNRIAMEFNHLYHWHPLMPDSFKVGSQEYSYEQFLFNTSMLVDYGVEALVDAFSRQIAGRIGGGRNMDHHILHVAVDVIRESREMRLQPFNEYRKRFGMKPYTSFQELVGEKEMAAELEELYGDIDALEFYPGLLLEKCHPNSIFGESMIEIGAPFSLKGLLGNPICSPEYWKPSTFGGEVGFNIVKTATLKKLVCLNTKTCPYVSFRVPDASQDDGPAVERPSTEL

**Q.** With `CCOCc1nc(-c2ccc(F)cc2)c(-c2ccc(S(C)(=O)=O)cc2)[nH]1` [Example 81, 2-(Ethoxymethyl)-4-(4-fluorophenyl)-5-[4-(methylsulfonyl)phenyl]-1H-imidazole] as the compound, how does the IC50 (Human COX I) read?
**A.** The IC50 was 77 µM.

**Q.** And the IC50 (Human COX II)?
**A.** The IC50 was 3.3 µM.

**Q.** Which results are given for `Cc1nc(-c2ccc(S(C)(=O)=O)cc2)c(-c2ccc(F)cc2)[nH]1` [Example 6, 5-(4-Fluorophenyl)-2-methyl-4-(4-methylsulfonylphenyl)-1H-imidazole]?
**A.** IC50 (Human COX I): > 100 µM; IC50 (Human COX II): 4.6 µM

**Q.** Which melting point does the source give for `Cc1ccccc1-c1[nH]c(C(F)(F)F)nc1-c1ccc(S(C)(=O)=O)cc1` [Example 67, 5-(2-Methylphenyl)-4-[4-(methylsulfonyl)phenyl]-2-(trifluoromethyl)-1H-imidazole] here?
**A.** The melting point was 180 to 190 °C.

**Q.** What does the source list for `CS(=O)(=O)c1ccc(-c2nc(C(F)(F)F)[nH]c2-c2ccc(F)cc2F)cc1` [Example 17, 5-(2,4-Difluorophenyl)-4-[4-(methylsulfonyl)phenyl]-2-(trifluoromethyl)-1H-imidazole]?
**A.** IC50 (Human COX I): > 100 µM; IC50 (Human COX II): 0.3 µM

**Q.** With `COc1c(C)cc(-c2[nH]c(C(F)(F)F)nc2-c2ccc(S(C)(=O)=O)cc2)cc1C` [Example 52, 5-(3,5-Dimethyl-4-methoxyphenyl)-4-[4-(methylsulfonyl)phenyl]-2-(trifluoromethyl)-1H-imidazole] as the compound, how does the melting point read?
**A.** Its melting point is 265 to 267 °C.

**Q.** For `Cc1ccc(-c2[nH]c(C(F)(F)F)nc2-c2ccc(S(C)(=O)=O)cc2)cc1C` [Example 61], which melting point is on record?
**A.** Its melting point is 279 to 284 °C.

**Q.** Which melting point does the source give for `Cc1cc(Cl)cc(-c2[nH]c(C(F)(F)F)nc2-c2ccc(S(C)(=O)=O)cc2)c1` [Example 54, 5-(3-Chloro-5-methylphenyl)-4-[-(methylsulfonyl)phenyl]-2-(trifluoromethyl)-1H-imidazole] here?
**A.** The melting point was 260 to 262 °C.

**Q.** Which results are given for `COc1ccc(-c2[nH]c(C(F)(F)F)nc2-c2ccc(S(C)(=O)=O)cc2)cc1` [Example 15, 5-(4-Methoxyphenyl)-4-[4-(methylsulfonyl)phenyl]-2-(trifluoromethyl)-1H-imidazole]?
**A.** IC50 (Human COX I): 5.6 µM; IC50 (Human COX II): 2.9 µM

**Q.** Which melting point does the source give for `COc1ccc(-c2[nH]c(C(F)(F)F)nc2-c2ccc(S(C)(=O)=O)cc2)cc1Cl` [Example 57, 5-(3-Chloro-4-methoxyphenyl)-4-[4-(methylsulfonyl)phenyl]-2-(trifluoromethyl)-1H-imidazole] here?
**A.** Its melting point is 288 to 291 °C.

**Q.** With `COc1cccc(-c2[nH]c(C(F)(F)F)nc2-c2ccc(S(C)(=O)=O)cc2)c1` [Example 65, 5-(3-Methoxyphenyl)-4-[4-(methylsulfonyl)phenyl]-2-(trifluoromethyl)-1H-imidazole] as the compound, how does the melting point read?
**A.** Its melting point is 202 to 208 °C.

**Q.** With `COc1ccc(-c2nc(C(F)(F)F)[nH]c2-c2ccc(S(C)(=O)=O)cc2)cc1OC` [Example 41, 4-(3,4-Dimethoxyphenyl)-5-[4-(methylsulfonyl)phenyl]-2-(trifluoromethyl)-1H-imidazole] as the compound, how does the melting point read?
**A.** Its melting point is 221 to 224 °C.

**Q.** For `Cc1ccc(-c2[nH]c(C(F)(F)F)nc2-c2ccc(S(C)(=O)=O)cc2)cc1F` [Example 56, 5-(3-Fluoro-4-methylphenyl)-4-[4-(methylsulfonyl)phenyl]-2-(trifluoromethyl)-1H-imidazole], which melting point is on record?
**A.** The melting point was 251 to 252 °C.

**Q.** With `CS(=O)(=O)c1ccc(-c2nc(C(F)(F)F)[nH]c2C2CCCCC2)cc1` [Example 69, 5-(Cyclohexyl)-4-[4-(methylsulfonyl)phenyl]-2-(trifluoromethyl)-1H-imidazole] as the compound, how does the melting point read?
**A.** Its melting point is 250 to 253 °C.

**Q.** Which melting point does the source give for `Cc1cc(C)cc(-c2[nH]c(C(F)(F)F)nc2-c2ccc(S(C)(=O)=O)cc2)c1` [Example 46, 5-(3,5-Dimethylphenyl)-4-[4-(methylsulfonyl)phenyl]-2-(trifluoromethyl)-1H-imidazole] here?
**A.** The melting point was 255 to 257 °C.

**Q.** Which melting point does the source give for `Cn1c(C(F)(F)F)nc(-c2ccc(F)cc2)c1-c1ccc(S(C)(=O)=O)cc1` [Example 45, 4-(4-Fluorophenyl)-1-methyl-5-[4-(methylsulfonyl)phenyl]-2-(trifluoromethyl)-1H-imidazole] here?
**A.** Its melting point is 193 to 195 °C.

**Q.** Which melting point does the source give for `CS(=O)(=O)c1ccc(-c2nc(C(=O)Cc3ccccc3)[nH]c2-c2ccc(F)cc2)cc1` [Example 86, 1-[5-(4-Fluorophenyl)-4-[4-(methylsulfonyl)phenyl]-1H-imidazol-2-yl]-2-phenylethanone] here?
**A.** The melting point was 263.2 °C.

**Q.** Which melting point does the source give for `Cc1cc(-c2[nH]c(C(F)(F)F)nc2-c2ccc(S(C)(=O)=O)cc2)ccc1Cl` [Example 71, 5-(4-Chloro-3-methylphenyl)-4-[4-(methylsulfonyl)phenyl]-2-(trifluoromethyl)-1H-imidazole] here?
**A.** Its melting point is 261 to 264 °C.

**Q.** For `CS(=O)(=O)c1ccc(-c2nc(C(F)(F)F)[nH]c2-c2cccc(F)c2)cc1` [Example 66, 5-(3-Fluorophenyl)-4-[4-(methylsulfonyl)phenyl]-2-(trifluoromethyl)-1H-imidazole], which melting point is on record?
**A.** The melting point was 225 to 229 °C.

**Q.** Which results are given for `NS(=O)(=O)c1ccc(-c2nc(C(F)(F)F)[nH]c2-c2ccc(F)cc2)cc1` [Example 21, 4-[5-(4-Fluorophenyl)-2-(trifluoromethyl)-1H-imidazol-4-yl]benzenesulfonamide]?
**A.** IC50 (Human COX I): 10.8 µM; melting point: 259 to 260 °C

**Q.** For `CS(=O)(=O)c1ccc(-c2nc(C(F)(F)F)[nH]c2C2CCCC2)cc1` [Example 75, 5-(Cyclopentyl)-4-[4-(methylsulfonyl)phenyl]-2-(trifluoromethyl)-1H-imidazole], which melting point is on record?
**A.** Its melting point is 210 to 212 °C.

**Q.** With `Cc1c(F)cccc1-c1[nH]c(C(F)(F)F)nc1-c1ccc(S(C)(=O)=O)cc1` [Example 77, 5-(3-Fluoro-2-methylphenyl)-4-[4-(methylsulfonyl)phenyl]-2-(trifluoromethyl)-1H-imidazole] as the compound, how does the melting point read?
**A.** Its melting point is 192 to 196 °C.

**Q.** With `CS(=O)(=O)c1ccc(-c2nc(C(F)(F)F)[nH]c2-c2cccc(Cl)c2)cc1` [Example 68, 5-(3-Chlorophenyl)-4-[4-(methylsulfonyl)phenyl]-2-(trifluoromethyl)-1H-imidazole] as the compound, how does the melting point read?
**A.** Its melting point is 224 to 226 °C.

**Q.** Which IC50 (Human COX I) does the source give for `CS(=O)(=O)c1ccc(-c2nc(SCc3ccccc3)[nH]c2-c2ccc(F)cc2)cc1` [Example 8, 2-Benzylthio-5-(4-fluorophenyl)-4-[4-(methylsulfonyl)phenyl]-1H-imidazole] here?
**A.** Its IC50 is 2.1 µM.

**Q.** And the melting point?
**A.** The melting point was 155 to 156 °C.

**Q.** Which melting point does the source give for `COc1ccc(-c2nc(C(F)(F)F)[nH]c2-c2ccc(S(C)(=O)=O)cc2)cc1C` [Example 42, 4-(4-Methoxy-3-methylphenyl)-5-[4-(methylsulfonyl)phenyl]-2-(trifluoromethyl)-1H-imidazole] here?
**A.** Its melting point is 265 to 267 °C.

**Q.** Which melting point does the source give for `CS(=O)(=O)c1ccc(-c2nc(C(F)(F)F)[nH]c2-c2ccsc2)cc1` [Example 76, 4-[4-(Methylsulfonyl)phenyl]-5-(3-thiophenyl)-2-(trifluoromethyl)-1H-imidazole] here?
**A.** Its melting point is 230 to 232 °C.

**Q.** For `COc1cc(-c2[nH]c(C(F)(F)F)nc2-c2ccc(S(C)(=O)=O)cc2)ccc1Cl` [Example 78, 5-(4-Chloro-3-methoxyphenyl)-4-[4-(methylsulfonyl)phenyl]-2-(trifluoromethyl)-1H-imidazole], which melting point is on record?
**A.** Its melting point is 233 to 234 °C.

**Q.** With `CS(=O)(=O)c1ccc(-c2nc(C(F)(F)F)[nH]c2-c2ccc(Cl)c(Cl)c2)cc1` [Example 13, 5-(3,4-Dichlorophenyl)-4-[4-(methylsulfonyl)phenyl]-2-(trifluoromethyl)-1H-imidazole] as the compound, how does the IC50 (Human COX I) read?
**A.** Its IC50 is 9.6 µM.

**Q.** For `Cc1ccc(-c2[nH]c(C(F)(F)F)nc2-c2ccc(S(C)(=O)=O)cc2)cc1Cl` [Example 73, 5-(3-Chloro-4-methylphenyl)-4-[4-(methylsulfonyl)phenyl]-2-(trifluoromethyl)-1H-imidazole], which melting point is on record?
**A.** The melting point was 273 to 275 °C.

— patent US6426360B1, “4,5-substituted imidazolyl compounds for the treatment of inflammation” (G D Searle & Co., priority 1994, dated 2002)
